Assay results published in ChEMBL document CHEMBL1142680, “Improving specificity vs bacterial thymidylate synthases through N-dansyl modulation of didansyltyrosine” (J Med Chem, 2005).

Legend:
Thymidylate synthase [1] = biological target: T1, Thymidylate synthase (Lactobacillus casei, UniProt P00469); test: Inhibitory constant against thymidylate synthase from Lactobacillus casei; set-up: species or system Lacticaseibacillus casei
T1 sequence (P00469 whole entry): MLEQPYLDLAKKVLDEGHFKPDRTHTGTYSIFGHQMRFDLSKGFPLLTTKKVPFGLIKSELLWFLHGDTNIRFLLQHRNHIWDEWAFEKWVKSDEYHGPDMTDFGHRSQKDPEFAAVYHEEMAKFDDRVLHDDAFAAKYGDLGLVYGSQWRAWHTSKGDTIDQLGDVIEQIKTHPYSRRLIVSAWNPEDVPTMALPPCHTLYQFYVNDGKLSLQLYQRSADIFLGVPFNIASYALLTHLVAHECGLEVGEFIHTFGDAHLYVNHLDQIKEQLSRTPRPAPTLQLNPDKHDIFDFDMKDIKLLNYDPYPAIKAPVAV

Thymidylate synthase [2] = biological target: Thymidylate synthase (Escherichia coli, UniProt C3SWJ7); test: Inhibitory constant against thymidylate synthase from Escherichia coli
Chain of Thymidylate synthase (Escherichia coli, UniProt C3SWJ7) (C3SWJ7 whole entry): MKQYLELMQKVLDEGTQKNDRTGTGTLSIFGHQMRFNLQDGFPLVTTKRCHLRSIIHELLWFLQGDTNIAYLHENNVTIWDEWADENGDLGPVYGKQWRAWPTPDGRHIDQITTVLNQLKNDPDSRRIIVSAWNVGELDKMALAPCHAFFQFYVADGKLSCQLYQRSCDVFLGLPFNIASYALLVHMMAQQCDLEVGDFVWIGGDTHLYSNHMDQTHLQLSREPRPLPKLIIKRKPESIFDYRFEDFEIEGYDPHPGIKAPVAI

Row | Compound | Ki (Thymidylate synthase [1]) [nM] | Ki (Thymidylate synthase [2]) [nM]
1 | CN(C)c1cccc2c(S(=O)(=O)Oc3ccc(C[C@H](NS(=O)(=O)c4cccc5cc([N+](=O)[O-])ccc45)C(=O)O)cc3)cccc12 | 300 | 300
2 | CN(C)c1cccc2c(S(=O)(=O)Oc3ccc(C[C@H](NS(=O)(=O)c4cccc5cc(N)ccc45)C(=O)O)cc3)cccc12 | 500 | 300
3 | CN(C)c1cccc2c(S(=O)(=O)Oc3ccc(C[C@H](NS(=O)(=O)c4ccc(NC(=O)OCc5ccccc5)c5ccccc45)C(=O)O)cc3)cccc12 | 1700 | 1500
4 | CN(C)c1cccc2c(S(=O)(=O)Oc3ccc(C[C@H](NS(=O)(=O)c4cc5nnoc5c5ccccc45)C(=O)O)cc3)cccc12 | 1600 | 15000
5 | CN(C)c1cccc2c(S(=O)(=O)N[C@@H](Cc3ccc(OS(=O)(=O)c4cccc5c(N(C)C)cccc45)cc3)C(=O)O)cccc12 | 1400 | 1800
6 | CN(C)c1cccc2c(S(=O)(=O)Oc3ccc(C[C@H](NS(=O)(=O)c4cccc5c(NC(=O)OCc6ccccc6)cccc45)C(=O)O)cc3)cccc12 | 100 | 9400
